Source: patent US20210246502A1, “RAPID IDENTIFICATION OF STRAINS FROM SEQUENCE DATA” (priority 2018, published 2021)

Assays:
N. gonorrhoeae [1] = assay type: cell-based, Neisseria gonorrhoeae; settings: out of all 1102 gonococcal isolates; ancestral reconstruction only for cefixime
Source text: (§1) For all antibiotics, RASE associates individual isolates with a resistance category, susceptible or non-susceptible. First, MIC values are mined using regular expressions from the available textual antibiograms, i.e., strings describing an interval of possible MIC values. Second, the acquired intervals are compared to the antibiotic-specific breakpoints (FIG. 6). If a given breakpoint is above or below the interval, susceptibility or non-susceptibility is reported, respectively. However, no category can be assigned at this step if the breakpoint lies within the extracted interval, an antibiogram is entirely missing, or an antibiogram is present, but parsing failed. Third, missing categories are inferred using ancestral state reconstruction on the associated phylogenetic tree while maximizing parsimony (i.e., minimizing the number of nodes switching its resistance category; FIG. 7).
(§2) The pneumococcal RASE database was constructed with the standard EUCAST breakpoints^16 ([g/ml]): benzylpenicillin (PEN): 0.06, ceftriaxone (CRO): 0.25, trimethoprim-sulfamethoxazole (SXT): 1.00, erythromycin (ERY): 0.25, and tetracycline (TET): 1.00. The gonococcal RASE database was constructed with the CDC GISP breakpoints ([g/ml]): azithromycin (AZM): 2.0, cefixime (CFM): 0.25, ciprofloxacin (CIP): 1.0, and ceftriaxone (CRO): 0.125. While the Inventors have used the above values in the present work, others may be readily defined and the database rapidly updated.
(§3) The Inventors assigned each pneumococcal and gonococcal isolate to an antibiotic-specific resistance category using the EUCAST breakpoints and CDC GISP breakpoints, respectively. Since MIC data were not always available, the Inventors estimated the likely resistance phenotype of unannotated isolates using ancestral state reconstruction.

S. pneumoniae [2] = assay: Resistance categories of pneumococcal RASE database isolates (MIC vs EUCAST breakpoints, ancestral state reconstruction); assay type: cell-based, Streptococcus pneumoniae; settings: for resistance phenotype of best match database isolate: best match in the Massachusetts RASE database for SP03 and SP06; for number of isolates susceptible: out of all 616 pneumococcal isolates, includes categories inferred by ancestral state reconstruction
Source text: as §1, with “(see below).” for “(FIG. 6).”, “category).” for “category; FIG. 7).”
The RASE database is constructed with the standard EUCAST breakpoints ([g/ml]): Benzylpenicillin (PEN): 0.06, Ceftriaxone (CRO): 0.25, […]: 1.00, Erythromycin (ERY): 0.25, and Tetracycline (TET): 1.00. The breakpoints are set conservatively, i.e., non-susceptibility is preferred over susceptibility for intermediate values. While the Inventors have used the above values in the present work, others may be readily defined and the database rapidly updated.
as §1, §2, §3

N. gonorrhoeae [3] = assay: MIC of gonococcal isolates against CDC GISP breakpoint; assay type: cell-based, Neisseria gonorrhoeae; parameters: unit not given beside the values
Source text: as §2, with “updated. This is especially useful in the case where breakpoints may vary depending on the site of infection (as is the case with pneumococcal meningitis and otitis media, where lower MICs are considered to be resistant).” for “updated.”

S. pneumoniae [4] = assay: Resistance of streptococcus in metagenomic sputum samples by agar diffusion, EUCAST methodology and breakpoints; assay type: cell-based, Streptococcus pneumoniae; settings: metagenomic sputum sample SP10 (Swedish 15A clone, ST63)
Method: Resistance of streptococcus in the metagenomic samples (SP07-SP12) was determined by agar diffusion using the EUCAST methodology and breakpoints. First, the inoculated agar plates were incubated at 37° C. overnight and then examined for growth with the potential for re-incubation up to 48 hours. Then, the samples were screened to oxacillin: if the zone diameter r was >20 mm, the isolate was considered sensitive to benzylpenicillin, otherwise a full MIC measurement to benzylpenicillin was done.

S. pneumoniae [5] = assay: Antibiograms of additional pneumococcal isolates not in the RASE database, EUCAST breakpoints; assay type: cell-based, Streptococcus pneumoniae; settings: 23F isolates SP03 and SP06, related to Tennessee 23F-4 clone
Source text: The Inventors examined four additional pneumococcal isolates (FIG. 14b) for which the serotype and limited antibiogram and lineage data were known. The Inventors compared three characteristics of the sample to assess the Inventors' performance: the serotype, the MLST sequence type (ST) and the antibiograms (benzylpenicillin, ceftriaxone, trimethoprim-sulfamethoxazole, erythromycin, and tetracycline resistance according to EUCAST breakpoints).

| Compound | number of isolates associated with resistance (N. gonorrhoeae [1]) | number of isolates susceptible (S. pneumoniae [2]) | also measured |
| --- | --- | --- | --- |
| CC[C@H]1OC(=O)[C@H](C)[C@@H](O[C@H]2C[C@@](C)(OC)[C@@H](O)[C@H](C)O2)[C@H](C)[C@@H](O[C@@H]2O[C@H](C)C[C@H](N(C)C)[C@H]2O)[C@](C)(O)C[C@@H](C)CN(C)[C@H](C)[C@@H](O)[C@]1(C)O [azithromycin] | 232 | – | – |
| CC1(C)S[C@@H]2[C@H](NC(=O)Cc3ccccc3)C(=O)N2[C@H]1C(=O)O [benzylpenicillin] | – | 341 | resistance phenotype of best match database isolate (S. pneumoniae [2]): resistant |
| C=CC1=C(C(=O)O)N2C(=O)[C@@H](NC(=O)/C(=N\OCC(=O)O)c3csc(N)n3)[C@H]2SC1 [cefixime] | 266 | – | – |
| CO/N=C(\C(=O)N[C@@H]1C(=O)N2C(C(=O)O)=C(CSc3nc(=O)c(=O)[nH]n3C)CS[C@H]12)c1csc(N)n1 [ceftriaxone] | 69 | 485 | MIC (N. gonorrhoeae [3]; best match of GC05 in the RASE database): 0.062; MIC (N. gonorrhoeae [3]; multi-drug resistant isolate GC05, equal to CDC GISP breakpoint): 0.125 |
| O=C(O)c1cn(C2CC2)c2cc(N3CCNCC3)c(F)cc2c1=O [ciprofloxacin] | 594 | – | – |
| CC[C@H]1OC(=O)[C@H](C)[C@@H](O[C@H]2C[C@@](C)(OC)[C@@H](O)[C@H](C)O2)[C@H](C)[C@@H](O[C@@H]2O[C@H](C)C[C@H](N(C)C)[C@H]2O)[C@](C)(O)C[C@@H](C)C(=O)[C@H](C)[C@@H](O)[C@]1(C)O [erythromycin] | – | 484 | resistance phenotype of sample (S. pneumoniae [4]): resistant; resistance phenotype of best match database isolate (S. pneumoniae [2]): susceptible; resistance phenotype of samples (S. pneumoniae [5]): resistant |
| Cc1onc(-c2ccccc2)c1C(=O)N[C@@H]1C(=O)N2[C@@H]1SC(C)(C)[C@@H]2C(=O)O [oxacillin] | – | – | resistance phenotype of sample (S. pneumoniae [4]): resistant |
| CN(C)[C@@H]1C(O)=C(C(N)=O)C(=O)[C@@]2(O)C(O)=C3C(=O)c4c(O)cccc4[C@@](C)(O)[C@H]3C[C@@H]12 [tetracycline] | – | 551 | – |
| COc1cc(Cc2cnc(N)nc2N)cc(OC)c1OC [trimethoprim, Trimethoprim] | – | 480 | – |
| trimethoprim-sulfamethoxazole | – | 480 | – |
